Key:
[1] = system: 5′-d(CGCATATATGCG)-3′ (DNA, duplex) CGCATATATGCG; test: native nESI-MS; conditions: K+ 100 μM (KCl), NH4+ 150 mM; 150 mM ammonium acetate, pH 7, 1% DMSO; 9 μM DNA, 100 μM compound
[2] = system: 5′-d(CGCATATATGCG)-3′ (DNA, duplex) CGCATATATGCG; test: 1H NMR titration and NOESY; conditions: 50 mM phosphate pH 7.4, 9:1 H2O/D2O, 298 K (cooled to 274 K); 1 mM duplex; slow exchange

binding [1]: yes
Compound: Cn1cc(NC(=O)c2cc(NC(=O)c3ccc(/C=C/c4cnc5ccccc5c4)cc3)cn2C)cc1C(=O)NCCN1CCOCC1
binding [2]: yes

— article PMC9745797 (2022)
